We go through 24 compounds from publication PMC8307317, “Point-Substitution of Phenylalanine Residues of 26RFa Neuropeptide: A Structure-Activity Relationship Study” (Molecules, 2021).

This experiment deals with T1, human QRFPR (hQRFPR) (Homo sapiens, UniProt Q96P65).
T1 construct: expressed in transfected cells; host or cells: CHO cells, stably transfected with hQRFPR (G418 selection) and Gα16 (hygromycin B selection)
T1 sequence (Q96P65 1-431): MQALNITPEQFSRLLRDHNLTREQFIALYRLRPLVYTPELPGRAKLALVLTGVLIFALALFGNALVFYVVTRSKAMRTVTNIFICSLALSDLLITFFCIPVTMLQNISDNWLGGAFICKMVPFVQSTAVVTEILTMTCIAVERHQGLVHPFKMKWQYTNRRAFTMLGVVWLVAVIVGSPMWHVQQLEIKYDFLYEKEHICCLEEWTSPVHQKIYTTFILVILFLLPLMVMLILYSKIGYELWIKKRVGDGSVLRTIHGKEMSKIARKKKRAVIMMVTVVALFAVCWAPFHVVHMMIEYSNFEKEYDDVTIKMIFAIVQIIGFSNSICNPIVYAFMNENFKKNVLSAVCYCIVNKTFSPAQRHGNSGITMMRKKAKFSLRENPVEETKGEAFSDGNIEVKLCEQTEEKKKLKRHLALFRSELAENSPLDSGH
The experiment in a line: Calcium mobilization assay, agonist mode ([Ca2+]i in Gα16-hQRFPR-transfected CHO cells). It counts as cell-based. The protocol:
Stably transfected hQRFPR CHO cells were obtained as previously described. The cells were maintained in F-12 nutrient mixture (Ham-F12) medium supplemented with 10% fetal bovine serum, 2 mM glutamine, and penicillin-streptomycin. Expression of Gα16 cells was maintained using selection antibiotic hygromycin B (200 µg/mL) and that of hQRFPR using geneticin G418 (500 µg/mL) (Life Technologies, Villebon-Sur-Yvette, France) in a humidified 5% CO2 atmosphere at 37 °C.
Changes in intracellular Ca^2+ concentrations induced by 26RFa(20–26) analogs in CHO-Gα16-hQRFPR-transfected cells were measured on a benchtop scanning fluorometer Flexstation III (Molecular Devices, Sunnyvale, CA, USA) as previously described. Briefly, 96-well assay black plates with clear bottoms (Corning international, Avon, France) were seeded at a density of 40,000 cells/well 24 h prior to assay. For profiling agonistic experiments, cells were loaded with 2 µM Fluo-4 acetoxymethyl ester (AM) (Invitrogen) for 1 h in the presence of 0.01% pluronic acid, washed thrice, and incubated for 30 min with standard HBSS containing 2.5 mM probenecid and 5 mM HEPES. Compounds to be tested were added at final concentrations ranging from 10^−11 to 10^−5 M in HBSS, and the fluorescence intensity was measured during 3 min. To evaluate the antagonistic potency of the test compounds, cells were incubated with each compound over 15 min after Fluo-4 AM loading. Then, during fluorescence recording, a pulse of 26RFa was administered at a final concentration of 10^−7 M. After subtraction of the mean fluorescence background, the baseline was normalized to 100%. Fluorescence peak values were determined for each concentration of compound.
Calcium experiments were performed in triplicate, and data, expressed as mean ± SEM of at least three distinct experiments, were analyzed with the Prism 8.0 software (Graphpad Software, San Diego, CA, USA). EC50 and the IC50 values were determined from concentration–response curves using a sigmoidal dose–response fit with variable slope from at least three independent determinations. Differences between 26RFa(20–26) and analog activities were analyzed by the Mann–Whitney test. p values < 0.05 were considered significant.

The mark [1] stands for this setting: [Ca2+]i mobilization in Gα16-hQRFPR-transfected CHO cells, mean of at least three independent experiments performed in triplicate, read-out: EC50.
Setting [2] is: single prototype curve, triplicate, basal [Ca2+]i mobilization, read-out: EC50 calculated from representative dose–response curves (Figure 3).

Structures are written as SMILES. Read-outs that look alike come from different tables or passages of the source. Non-standard residues stand in square brackets, D forms with d. Residues, ends and D or L forms follow the SMILES beside them. ξ: configuration not given here. Phe(4-NO2) = N[C@@H](Cc1ccc([N+](=O)[O-])cc1)C(=O)O; Phe(4-tBu) = CC(C)(C)c1ccc(C[C@H](N)C(=O)O)cc1; Phe(4-Cl) = N[C@@H](Cc1ccc(Cl)cc1)C(=O)O; 2Nal = N[C@@H](Cc1ccc2ccccc2c1)C(=O)O; NMeF = CN[C@@H](Cc1ccccc1)C(=O)O; Tic = O=C(O)[C@@H]1Cc2ccccc2CN1; 2Thi = N[C@@H](Cc1cccs1)C(=O)O; ξPhg = NC(C(=O)O)c1ccccc1

Turning to `N=C(N)NCCC[C@H](NC(=O)[C@H](Cc1ccccc1)NC(=O)[C@H](CO)NC(=O)[C@H](Cc1cccs1)NC(=O)CNC(=O)CN)C(=O)N[C@@H](Cc1ccccc1)C(N)=O` [Compound 2, [Thi^22]26RFa(20–26)] (H-GG[2Thi]SFRF-NH2), the EC50 (in general, the concentration at which the effect is half-maximal) under setting [1] was found to be 3.16 µM.
As for `N=C(N)NCCC[C@H](NC(=O)[C@H](Cc1cccs1)NC(=O)[C@H](CO)NC(=O)[C@H](Cc1ccccc1)NC(=O)CNC(=O)CN)C(=O)N[C@@H](Cc1ccccc1)C(N)=O` [Compound 3, [Thi^24]26RFa(20–26)] (H-GGFS[2Thi]RF-NH2), the EC50 under setting [1] was determined as 2.53 µM.
With `N=C(N)NCCC[C@H](NC(=O)[C@H](Cc1ccccc1)NC(=O)[C@H](CO)NC(=O)[C@H](Cc1ccccc1)NC(=O)CNC(=O)CN)C(=O)N[C@@H](Cc1cccs1)C(N)=O` [Compound 4, [Thi^26]26RFa(20–26)] (H-GGFSFR[2Thi]-NH2), under setting [1], the EC50 is 7.23 µM.
As to `N=C(N)NCCC[C@H](NC(=O)[C@H](Cc1ccccc1)NC(=O)[C@H](CO)NC(=O)[C@H](Cc1ccc2ccccc2c1)NC(=O)CNC(=O)CN)C(=O)N[C@@H](Cc1ccccc1)C(N)=O` [Compound 5, [2Nal^22]26RFa(20–26)] (H-GG[2Nal]SFRF-NH2), under setting [1], the EC50 stood at 1.15 µM.
Consider `N=C(N)NCCC[C@H](NC(=O)[C@H](Cc1ccc2ccccc2c1)NC(=O)[C@H](CO)NC(=O)[C@H](Cc1ccccc1)NC(=O)CNC(=O)CN)C(=O)N[C@@H](Cc1ccccc1)C(N)=O` [Compound 6, [2Nal^24]26RFa(20–26)] (H-GGFS[2Nal]RF-NH2), for which the EC50 under setting [1] came to 15.3 µM.
With `N=C(N)NCCC[C@H](NC(=O)[C@H](Cc1ccccc1)NC(=O)[C@H](CO)NC(=O)[C@H](Cc1ccccc1)NC(=O)CNC(=O)CN)C(=O)N[C@@H](Cc1ccc2ccccc2c1)C(N)=O` [Compound 7, [2Nal^26]26RFa(20–26)] (H-GGFSFR[2Nal]-NH2), under setting [1], the EC50 turned out to be 3.79 µM.
On to `CC(C)(C)c1ccc(C[C@H](NC(=O)[C@H](CO)NC(=O)[C@H](Cc2ccccc2)NC(=O)CNC(=O)CN)C(=O)N[C@@H](CCCNC(=N)N)C(=O)N[C@@H](Cc2ccccc2)C(N)=O)cc1` [Compound 12, [ptBuPhe^24]26RFa(20–26)] (H-GGFS[Phe(4-tBu)]RF-NH2), for which the EC50 under setting [1] is above 10 µM.
For `CC(C)(C)c1ccc(C[C@H](NC(=O)[C@H](CCCNC(=N)N)NC(=O)[C@H](Cc2ccccc2)NC(=O)[C@H](CO)NC(=O)[C@H](Cc2ccccc2)NC(=O)CNC(=O)CN)C(N)=O)cc1` [Compound 13, [ptBuPhe^26]26RFa(20–26)] (H-GGFSFR[Phe(4-tBu)]-NH2), the EC50 under setting [1] turned out to be 1.04 µM and the EC50 under setting [2] was 1.08 µM.
As to `N=C(N)NCCC[C@H](NC(=O)[C@H](Cc1ccccc1)NC(=O)[C@H](CO)NC(=O)[C@H](Cc1ccc(Cl)cc1)NC(=O)CNC(=O)CN)C(=O)N[C@@H](Cc1ccccc1)C(N)=O` [Compound 14, [Pcp^22]26RFa(20–26)] (H-GG[Phe(4-Cl)]SFRF-NH2), the EC50 under setting [1] came out at 5 µM.
On the same count and under the same terms, the result for `N=C(N)NCCC[C@H](NC(=O)[C@H](Cc1ccc(Cl)cc1)NC(=O)[C@H](CO)NC(=O)[C@H](Cc1ccccc1)NC(=O)CNC(=O)CN)C(=O)N[C@@H](Cc1ccccc1)C(N)=O` [Compound 15, [Pcp^24]26RFa(20–26)] (H-GGFS[Phe(4-Cl)]RF-NH2) reads 0.85 µM.
Take `N=C(N)NCCC[C@H](NC(=O)[C@H](Cc1ccccc1)NC(=O)[C@H](CO)NC(=O)[C@H](Cc1ccccc1)NC(=O)CNC(=O)CN)C(=O)N[C@@H](Cc1ccc(Cl)cc1)C(N)=O` [Compound 16, [Pcp^26]26RFa(20–26)] (H-GGFSFR[Phe(4-Cl)]-NH2): the EC50 is 0.457 µM under setting [1] and 0.416 µM under setting [2].
Regarding `N=C(N)NCCC[C@H](NC(=O)[C@H](Cc1ccccc1)NC(=O)[C@H](CO)NC(=O)[C@H](Cc1ccc([N+](=O)[O-])cc1)NC(=O)CNC(=O)CN)C(=O)N[C@@H](Cc1ccccc1)C(N)=O` [Compound 17, [pNO2Phe^22]26RFa(20–26)] (H-GG[Phe(4-NO2)]SFRF-NH2), the EC50 under setting [1] amounted to 2.13 µM.
As for `N=C(N)NCCC[C@H](NC(=O)[C@H](Cc1ccc([N+](=O)[O-])cc1)NC(=O)[C@H](CO)NC(=O)[C@H](Cc1ccccc1)NC(=O)CNC(=O)CN)C(=O)N[C@@H](Cc1ccccc1)C(N)=O` [Compound 18, [pNO2Phe^24]26RFa(20–26)] (H-GGFS[Phe(4-NO2)]RF-NH2), the EC50 under setting [1] is above 10 µM.
With `N=C(N)NCCC[C@H](NC(=O)[C@H](Cc1ccccc1)NC(=O)[C@H](CO)NC(=O)[C@H](Cc1ccccc1)NC(=O)CNC(=O)CN)C(=O)N[C@@H](Cc1ccc([N+](=O)[O-])cc1)C(N)=O` [Compound 19, [pNO2Phe^26]26RFa(20–26)] (H-GGFSFR[Phe(4-NO2)]-NH2), the EC50 runs as follows: under setting [1], 0.491 µM; under setting [2], 0.489 µM.
With `N=C(N)NCCC[C@H](NC(=O)[C@H](Cc1ccccc1)NC(=O)[C@H](CO)NC(=O)C(NC(=O)CNC(=O)CN)c1ccccc1)C(=O)N[C@@H](Cc1ccccc1)C(N)=O` (some centres unmarked) [Compound 20, [Phg^22]26RFa(20–26)] (H-GG[ξPhg]SFRF-NH2), under setting [1], the EC50 turned out to be 5.01 µM.
In the case of `N=C(N)NCCC[C@H](NC(=O)C(NC(=O)[C@H](CO)NC(=O)[C@H](Cc1ccccc1)NC(=O)CNC(=O)CN)c1ccccc1)C(=O)N[C@@H](Cc1ccccc1)C(N)=O` (some centres unmarked) [Compound 21, [Phg^24]26RFa(20–26)] (H-GGFS[ξPhg]RF-NH2), under setting [1], the EC50 was above 10 µM.
On the same count and under the same terms, with `N=C(N)NCCC[C@H](NC(=O)C(NC(=O)[C@H](CO)NC(=O)[C@H](Cc1ccccc1)NC(=O)CNC(=O)CN)c1ccccc1)C(=O)N[C@@H](Cc1ccccc1)C(N)=O` (some centres unmarked) [Compound 22, [Phg^24]26RFa(20–26)] (H-GGFS[ξPhg]RF-NH2) the figure was above 10 µM; with `N=C(N)NCCC[C@H](NC(=O)[C@H](Cc1ccccc1)NC(=O)[C@H](CO)NC(=O)[C@H](Cc1ccccc1)NC(=O)CNC(=O)CN)C(=O)NC(C(N)=O)c1ccccc1` (some centres unmarked) [Compound 23, [Phg^26]26RFa(20–26)] (H-GGFSFR[ξPhg]-NH2), above 10 µM.
As to `N=C(N)NCCC[C@H](NC(=O)[C@H](Cc1ccccc1)NC(=O)[C@H](CO)NC(=O)[C@H](Cc1ccccc1)NC(=O)CNC(=O)CN)C(=O)NC(C(N)=O)c1ccccc1` (some centres unmarked) [Compound 24, [Phg^26]26RFa(20–26)] (H-GGFSFR[ξPhg]-NH2), the EC50 under setting [1] was above 10 µM.
With `CN(C(=O)CNC(=O)CN)[C@@H](Cc1ccccc1)C(=O)N[C@@H](CO)C(=O)N[C@@H](Cc1ccccc1)C(=O)N[C@@H](CCCNC(=N)N)C(=O)N[C@@H](Cc1ccccc1)C(N)=O` [Compound 25, [NMePhe^22]26RFa(20–26)] (H-GG[NMeF]SFRF-NH2), the EC50 was 15.1 µM under setting [1] and above 10 µM ([Ca2+]i mobilization, N-methylated analogs, read-out: EC50).
Take `CN(C(=O)[C@H](CO)NC(=O)[C@H](Cc1ccccc1)NC(=O)CNC(=O)CN)[C@@H](Cc1ccccc1)C(=O)N[C@@H](CCCNC(=N)N)C(=O)N[C@@H](Cc1ccccc1)C(N)=O` [Compound 26, [NMePhe^24]26RFa(20–26)] (H-GGFS[NMeF]RF-NH2): the EC50 under setting [1] came out at 1.36 µM.
For `CN(C(=O)[C@H](CCCNC(=N)N)NC(=O)[C@H](Cc1ccccc1)NC(=O)[C@H](CO)NC(=O)[C@H](Cc1ccccc1)NC(=O)CNC(=O)CN)[C@@H](Cc1ccccc1)C(N)=O` [Compound 27, [NMePhe^26]26RFa(20–26)] (H-GGFSFR[NMeF]-NH2), the EC50 under setting [1] was above 10 µM.
With `N=C(N)NCCC[C@H](NC(=O)[C@H](Cc1ccccc1)NC(=O)[C@H](CO)NC(=O)[C@@H]1Cc2ccccc2CN1C(=O)CNC(=O)CN)C(=O)N[C@@H](Cc1ccccc1)C(N)=O` [Compound 28, [Tic^22]26RFa(20–26)] (H-GG[Tic]SFRF-NH2), the EC50 reads like this: under setting [1], 0.327 µM; under setting [2], 0.305 µM.
For the compound `N=C(N)NCCC[C@H](NC(=O)[C@@H]1Cc2ccccc2CN1C(=O)[C@H](CO)NC(=O)[C@H](Cc1ccccc1)NC(=O)CNC(=O)CN)C(=O)N[C@@H](Cc1ccccc1)C(N)=O` [Compound 29, [Tic^24]26RFa(20–26)] (H-GGFS[Tic]RF-NH2), under setting [1], the EC50 was above 10 µM.
